Each structure is given as a SMILES string.

For the first assay, the system named is IL-1beta production in mouse microglial cell line. The experiment in a line: Interleukin-1β microglial cell assay. It is filed as cell-based. The settings on record: LPS 10 μg/ml and IFN gamma 10 ng/ml, 24 hours, read-out: EC50, inhibition of IL-1beta production. How it is done:
This assay measures the release of IL-1β from a mouse microglial cell line following an inflammatory challenge with LPS and interferon-gamma. The ability of test articles to inhibit microglial cell activation and IL-1β release is determined by co-incubation of the test article with the inflammatory challenge.
Mouse microglial cells were seeded in poly-D-lysine coated 96-well plates at a density of 10,000 cells/well and allowed to attach for 24 hours. Cells were stimulated by addition of LPS (10 μg/ml) and IFN gamma (10 ng/ml) in the presence or absence of test article. The cells were then incubated for 24 hours at 37° C., after which time the media was removed and used for cytokine determination as described below.
Viability of mouse microglial cells after exposure to the test article was determined using a fluorescent viability dye, Cell Tracker Green. Cell Tracker Green was used at a working concentration of 5 μM in 1×HBSS. Cells were washed once with HBSS (200 μl/well) and 100 μl Cell Tracker Green was added to each well. Cells were then incubated at 37° C. for 30 minutes, after which time the Cell Tracker was removed and the cells were washed once with HBSS (200 μl/well). 100 μl fresh HBSS was added to each well and the plate was read on a Fluoroskan plate reader using an excitation wavelength of 485 nm and an emission wavelength of 538 nm.
Solutions: • Wash Buffer: PBS 1 L+500 μl Tween 20 (final 0.05%) pH 7.2-7.4. • Blocking Buffer: 500 ml PBS+5 g BSA V (1%)+25 g Sucrose (5%)+0.25 g Sodium Azide (0.05%). • Reagent Diluent: 500 ml PBS+5 g BSA V (1%) pH 7.2-7.4 and filter sterilize through 0.2 μm. • Stop Solution: 2N sulfuric acid.
Duo Set Preparations: • 1. The IL-1β capture antibody was reconstituted in 1 ml of PBS to give a final concentration of 720 μg/ml, and the working concentration was 4 μg/ml. For coating one 96-well plate (at 100 μl/well) 56 μl of the 720 μg/ml stock was diluted into 10 ml of PBS. • 2. The IL-1β standards were reconstituted in 0.5 ml of Reagent Diluent (70 ng/ml). For a high standard of 1 ng/ml (2 wells at 100 μl each+enough for series dilution) 7.1 μl of the 70 ng/ml standard were diluted into 0.5 ml of Reagent Diluent • 3. The IL-1β detection antibody was reconstituted in 1 ml of Reagent Diluent to give a final concentration of 18 μg/ml and the working concentration is 100 ng/ml. For one 96-well plate (at 100 μl/well) 56 μl of the 18 μg/ml stock was diluted into 10 ml of Reagent Diluent.
• The Costar EIA Hi-binding plate was coated with capture antibody at 4 μg/ml. Each well was coated with 100 μl, and the plate was sealed and incubated overnight at room temperature. • Each well was aspirated and washed 3× with Wash Buffer. Each well was filled to the top, dispensed, and any remaining buffer was removed by inverting the plate and gently blotting against clean paper towels. • Non-specific binding sites were blocked by adding 300 μl of Blocking Buffer to each well, and after sealing incubating for at least 1 hour at room temperature. • After washing the plate was now ready for the samples. Assay Procedure: • 100 μl of either standard or sample were added in each well of the capture-coated and pre-blocked plate. The plate was sealed and incubated for 2 hours at room temperature, followed with washing. • 100 μl of the detection antibody (10 ng/ml) were added to each well. […]
`CC(C)=CCc1c(O)c2c(c3c1CCC(C)(C)O3)C1CCC2C1` (stereo not drawn) [2,2-Dimethyl-5-(3-methyl-but-2-enyl)-3,4,7,8,9,10-hexahydro-7,10-methano-2H-benzo[h]chromen-6-ol]: the EC50 was at most 20 µM.

In the case of `CC(C)CCc1c(O)c2c(c3c1CCC(C)(C)O3)C1CCC2C1` (stereo not drawn) [2,2-Dimethyl-5-(3-methyl-butyl)-3,4,7,8,9,10-hexahydro-7,10-methano-2H-benzo[h]chromen-6-ol], the EC50 is at most 20 µM.

The next assay concerns the target T1, human recombinant 5-lipoxygenase (Homo sapiens, UniProt P09917).
T1 construct: purchased Cayman 60402
T1 sequence (P09917 1-674): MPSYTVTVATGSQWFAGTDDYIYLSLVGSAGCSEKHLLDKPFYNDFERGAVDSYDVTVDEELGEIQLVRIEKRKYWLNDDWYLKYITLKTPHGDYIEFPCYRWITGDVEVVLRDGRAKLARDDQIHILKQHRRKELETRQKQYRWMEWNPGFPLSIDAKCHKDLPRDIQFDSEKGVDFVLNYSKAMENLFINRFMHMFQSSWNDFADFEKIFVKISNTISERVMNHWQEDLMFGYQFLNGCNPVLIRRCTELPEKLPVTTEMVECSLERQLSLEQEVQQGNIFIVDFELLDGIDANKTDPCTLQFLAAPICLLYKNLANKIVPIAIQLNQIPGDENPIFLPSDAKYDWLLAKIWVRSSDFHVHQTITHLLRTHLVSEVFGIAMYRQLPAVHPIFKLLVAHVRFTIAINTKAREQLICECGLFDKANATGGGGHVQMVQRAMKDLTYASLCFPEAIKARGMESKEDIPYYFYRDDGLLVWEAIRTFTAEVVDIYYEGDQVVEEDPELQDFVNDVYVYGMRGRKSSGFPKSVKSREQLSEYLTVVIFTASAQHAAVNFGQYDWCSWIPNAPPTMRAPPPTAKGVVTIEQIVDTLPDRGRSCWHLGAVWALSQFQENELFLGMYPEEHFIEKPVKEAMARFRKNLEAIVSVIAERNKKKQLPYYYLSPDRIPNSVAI
The experiment in a line: 5-Lipoxygenase enzyme assay. It is filed as biochemical. The settings on record: 70 μM arachidonic acid, pH 7.4. The method, boiled down:
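Human recombinant 5-LO (0.5 U) with compound in 50 mM Tris-HCl pH 7.4 reacted with 70 μM arachidonic acid for 10 min at room temperature. Hydroperoxide formation was read via FOX xylenol orange complex at 620 nm after 1 h; compounds at 5 concentrations from 10 μM, in triplicate.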
For the compound `CC1(C)CCc2cc(O)c3c(c2O1)C1CCC3CC1` [2,2-Dimethyl-3,4,7,8,9,10-hexahydro-7,10-ethano-2H-benzo[h]chromen-6-ol], the IC50 was at most 5 µM.

On to `CC1(C)C=Cc2cc(O)c3c(c2O1)C1CCC3CC1` [2,2-Dimethyl-7,8,9,10-tetrahydro-7,10-ethano-2H-benzo[h]chromen-6-ol], for which the IC50 was at most 5 µM.

In the case of `CC1(CCCCl)CCc2cc(O)c3c(c2O1)C1CCC3C1` (stereo not drawn) [2-(3-Chloro-propyl)-2-methyl-3,4,7,8,9,10-hexahydro-7,10-methano-2H-benzo[h]chromen-6-ol], the IC50 is at most 5 µM.

For the compound `CC1(CCCSc2nccs2)CCc2cc(O)c3c(c2O1)C1CCC3C1` (stereo not drawn) [2-Methyl-2-[3-(thiazol-2-ylsulfanyl)-propyl]-3,4,7,8,9,10-hexahydro-7,10-methano-2H-benzo[h]chromen-6-ol], the half-maximal inhibitory concentration (IC50) was at most 5 µM.

(Values after US7875607B2, “7,8-bicycloakyl-chroman derivatives” (Ampere Life Sciences, Inc., priority 2004, dated 2011).)
